We go through one molecule from publication PMC7206119, “RIP1 inhibition blocks inflammatory diseases but not tumor growth or metastases” (Cell Death and Differentiation, 2019).

Structures are written as SMILES.

Targets include FGR (Homo sapiens, UniProt P09769); CHEK2 (Homo sapiens, UniProt O96017); KIT(V559D,T670I) (Homo sapiens, UniProt P10721, T670I/V559D); CSNK1A1 (Homo sapiens, UniProt P48729); MAP3K4 (Homo sapiens, UniProt Q9Y6R4); PLK4 (Homo sapiens, UniProt O00444); WNK3 (Homo sapiens, UniProt Q9BYP7); ERN1 (Homo sapiens, UniProt O75460); MAP4K3 (Homo sapiens, UniProt Q8IVH8); STK16 (Homo sapiens, UniProt O75716); MAP4K4 (Homo sapiens, UniProt O95819); MKNK2 (Homo sapiens, UniProt Q9HBH9).

Holding throughout (assay): biochemical
What all share (design): DiscoverX kinase panel, active-site competition binding (KINOMEscan type), percent of control at one concentration
Holding throughout (conditions): competition binding, percent of control

The target in the next assay is T1, GCN2(Kin.Dom.2,S808G) (Homo sapiens, UniProt Q9P2K8, S808G).
T1 construct: gene EIF2AK4; Kin.Dom.2

The target of the next assay is T2, DLK (Homo sapiens, UniProt Q12852).
T2 construct: gene MAP3K12

For a further assay, the target named is T3, MINK (Homo sapiens, UniProt Q8N4C8).
T3 construct: gene MINK1

The target of assay [1] is T4, RPS6KA4(Kin.Dom.1-N-terminal) (Homo sapiens, UniProt O75676).
T4 construct: Kin.Dom.1-N-terminal

Another assay addresses T5, MST3 (Homo sapiens, UniProt Q9Y6E0).
T5 construct: gene STK24

Assay [2] has as its target T6, ABL1(M351T)-phosphorylated (Homo sapiens, UniProt P00519, M351T).
T6 construct: phosphorylated

For the next assay, the target named is T7, MST2 (Homo sapiens, UniProt Q13188).
T7 construct: gene STK3

The target of a further assay is T8, ERK8 (Homo sapiens, UniProt Q8TD08).
T8 construct: gene MAPK15

Another assay addresses T9, p38-gamma (Homo sapiens, UniProt P53778).
T9 construct: gene MAPK12

T1 sequence (Q9P2K8 whole entry S808G): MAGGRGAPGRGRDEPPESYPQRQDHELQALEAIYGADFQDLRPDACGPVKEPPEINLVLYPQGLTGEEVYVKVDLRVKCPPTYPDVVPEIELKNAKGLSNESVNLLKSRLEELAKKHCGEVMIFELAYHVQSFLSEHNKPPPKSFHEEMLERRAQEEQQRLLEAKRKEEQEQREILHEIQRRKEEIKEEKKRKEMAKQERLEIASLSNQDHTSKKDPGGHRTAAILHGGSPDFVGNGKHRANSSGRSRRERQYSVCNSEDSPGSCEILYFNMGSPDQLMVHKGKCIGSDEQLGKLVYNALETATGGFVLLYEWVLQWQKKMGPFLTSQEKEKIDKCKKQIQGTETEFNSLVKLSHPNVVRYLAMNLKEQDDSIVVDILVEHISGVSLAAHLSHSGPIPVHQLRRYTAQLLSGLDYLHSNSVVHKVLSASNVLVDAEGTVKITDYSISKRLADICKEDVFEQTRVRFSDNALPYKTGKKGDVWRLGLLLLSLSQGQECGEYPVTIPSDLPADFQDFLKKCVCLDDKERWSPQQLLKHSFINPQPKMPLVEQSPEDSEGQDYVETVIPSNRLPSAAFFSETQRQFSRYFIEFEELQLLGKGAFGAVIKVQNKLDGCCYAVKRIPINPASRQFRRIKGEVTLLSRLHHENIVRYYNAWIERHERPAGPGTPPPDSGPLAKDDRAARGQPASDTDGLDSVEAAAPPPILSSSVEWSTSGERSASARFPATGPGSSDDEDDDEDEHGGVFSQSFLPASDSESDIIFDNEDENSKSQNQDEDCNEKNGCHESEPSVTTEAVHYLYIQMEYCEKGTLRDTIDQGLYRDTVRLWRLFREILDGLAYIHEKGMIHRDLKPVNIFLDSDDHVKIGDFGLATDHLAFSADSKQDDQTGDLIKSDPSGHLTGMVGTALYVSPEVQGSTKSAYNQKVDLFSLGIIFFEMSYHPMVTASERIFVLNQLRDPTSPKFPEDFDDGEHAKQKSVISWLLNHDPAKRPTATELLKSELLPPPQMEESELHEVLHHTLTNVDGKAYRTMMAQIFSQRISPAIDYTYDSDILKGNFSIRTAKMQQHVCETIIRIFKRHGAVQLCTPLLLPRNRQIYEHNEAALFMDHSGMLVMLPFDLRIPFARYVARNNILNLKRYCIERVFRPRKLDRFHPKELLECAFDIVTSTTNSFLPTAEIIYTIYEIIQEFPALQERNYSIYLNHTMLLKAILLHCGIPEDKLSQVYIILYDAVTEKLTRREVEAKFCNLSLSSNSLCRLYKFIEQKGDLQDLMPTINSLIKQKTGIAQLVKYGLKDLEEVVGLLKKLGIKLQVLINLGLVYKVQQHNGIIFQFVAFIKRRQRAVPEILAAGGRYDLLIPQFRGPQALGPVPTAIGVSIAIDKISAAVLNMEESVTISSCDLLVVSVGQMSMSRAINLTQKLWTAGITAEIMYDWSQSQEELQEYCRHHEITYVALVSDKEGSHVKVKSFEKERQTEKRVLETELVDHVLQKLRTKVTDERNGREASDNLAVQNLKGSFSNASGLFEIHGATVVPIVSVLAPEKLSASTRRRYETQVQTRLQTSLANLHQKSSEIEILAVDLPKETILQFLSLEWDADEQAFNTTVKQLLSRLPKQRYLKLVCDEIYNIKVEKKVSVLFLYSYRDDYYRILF
T3 sequence (Q8N4C8 whole entry): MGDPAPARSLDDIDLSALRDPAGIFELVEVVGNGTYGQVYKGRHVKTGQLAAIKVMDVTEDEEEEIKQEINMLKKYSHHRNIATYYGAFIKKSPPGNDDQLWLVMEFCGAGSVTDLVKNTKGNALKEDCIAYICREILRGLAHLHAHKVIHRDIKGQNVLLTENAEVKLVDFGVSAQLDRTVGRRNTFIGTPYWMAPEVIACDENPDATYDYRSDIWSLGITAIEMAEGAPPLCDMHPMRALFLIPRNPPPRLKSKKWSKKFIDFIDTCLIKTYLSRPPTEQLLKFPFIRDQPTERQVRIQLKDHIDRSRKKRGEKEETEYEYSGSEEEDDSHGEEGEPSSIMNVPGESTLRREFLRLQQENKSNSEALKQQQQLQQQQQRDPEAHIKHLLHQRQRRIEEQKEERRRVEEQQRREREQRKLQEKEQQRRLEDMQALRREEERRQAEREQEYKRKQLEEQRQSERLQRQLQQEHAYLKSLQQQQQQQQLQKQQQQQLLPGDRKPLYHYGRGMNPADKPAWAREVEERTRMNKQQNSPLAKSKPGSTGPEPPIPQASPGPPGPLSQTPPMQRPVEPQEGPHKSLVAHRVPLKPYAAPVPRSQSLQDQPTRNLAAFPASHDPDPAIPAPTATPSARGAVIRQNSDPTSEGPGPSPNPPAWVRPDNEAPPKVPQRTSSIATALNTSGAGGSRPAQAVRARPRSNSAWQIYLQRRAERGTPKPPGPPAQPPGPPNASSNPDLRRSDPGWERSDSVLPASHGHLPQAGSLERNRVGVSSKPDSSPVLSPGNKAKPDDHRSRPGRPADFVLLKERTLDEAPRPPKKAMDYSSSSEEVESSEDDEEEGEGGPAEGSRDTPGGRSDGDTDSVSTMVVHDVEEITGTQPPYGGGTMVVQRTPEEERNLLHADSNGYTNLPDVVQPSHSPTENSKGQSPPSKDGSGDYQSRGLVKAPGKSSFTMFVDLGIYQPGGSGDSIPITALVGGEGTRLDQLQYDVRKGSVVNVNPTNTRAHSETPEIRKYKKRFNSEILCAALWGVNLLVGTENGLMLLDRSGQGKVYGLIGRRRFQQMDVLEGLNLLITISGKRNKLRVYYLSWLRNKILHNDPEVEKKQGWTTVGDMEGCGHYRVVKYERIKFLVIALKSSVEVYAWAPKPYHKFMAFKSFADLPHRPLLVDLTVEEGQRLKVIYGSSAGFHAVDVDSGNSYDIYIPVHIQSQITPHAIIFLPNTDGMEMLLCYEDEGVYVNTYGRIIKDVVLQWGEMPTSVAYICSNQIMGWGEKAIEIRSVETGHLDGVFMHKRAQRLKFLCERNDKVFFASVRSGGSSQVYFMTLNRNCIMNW
T2 sequence (Q12852 whole entry): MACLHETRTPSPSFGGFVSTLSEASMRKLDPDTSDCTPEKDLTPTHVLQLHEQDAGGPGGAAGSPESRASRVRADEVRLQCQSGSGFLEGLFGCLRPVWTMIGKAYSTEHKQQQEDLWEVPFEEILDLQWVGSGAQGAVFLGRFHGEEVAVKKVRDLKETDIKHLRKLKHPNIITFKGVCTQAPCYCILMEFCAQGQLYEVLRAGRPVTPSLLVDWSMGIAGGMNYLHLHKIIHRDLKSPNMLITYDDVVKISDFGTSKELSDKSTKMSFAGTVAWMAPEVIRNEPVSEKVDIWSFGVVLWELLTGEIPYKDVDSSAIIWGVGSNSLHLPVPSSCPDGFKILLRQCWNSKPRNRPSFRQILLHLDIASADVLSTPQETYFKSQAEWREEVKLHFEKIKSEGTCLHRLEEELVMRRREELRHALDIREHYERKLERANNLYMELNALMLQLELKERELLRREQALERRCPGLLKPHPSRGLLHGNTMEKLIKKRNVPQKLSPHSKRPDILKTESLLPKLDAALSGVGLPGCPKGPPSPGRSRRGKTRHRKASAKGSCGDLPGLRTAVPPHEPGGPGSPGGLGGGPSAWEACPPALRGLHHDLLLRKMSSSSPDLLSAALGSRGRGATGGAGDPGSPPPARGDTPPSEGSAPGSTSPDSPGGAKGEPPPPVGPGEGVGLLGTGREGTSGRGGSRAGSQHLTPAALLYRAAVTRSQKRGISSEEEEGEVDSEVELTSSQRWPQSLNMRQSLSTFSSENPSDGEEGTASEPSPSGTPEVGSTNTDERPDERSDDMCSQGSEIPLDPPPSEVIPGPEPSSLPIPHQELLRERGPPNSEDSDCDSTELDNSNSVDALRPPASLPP
MAP4K3, sequence (Q8IVH8 whole entry): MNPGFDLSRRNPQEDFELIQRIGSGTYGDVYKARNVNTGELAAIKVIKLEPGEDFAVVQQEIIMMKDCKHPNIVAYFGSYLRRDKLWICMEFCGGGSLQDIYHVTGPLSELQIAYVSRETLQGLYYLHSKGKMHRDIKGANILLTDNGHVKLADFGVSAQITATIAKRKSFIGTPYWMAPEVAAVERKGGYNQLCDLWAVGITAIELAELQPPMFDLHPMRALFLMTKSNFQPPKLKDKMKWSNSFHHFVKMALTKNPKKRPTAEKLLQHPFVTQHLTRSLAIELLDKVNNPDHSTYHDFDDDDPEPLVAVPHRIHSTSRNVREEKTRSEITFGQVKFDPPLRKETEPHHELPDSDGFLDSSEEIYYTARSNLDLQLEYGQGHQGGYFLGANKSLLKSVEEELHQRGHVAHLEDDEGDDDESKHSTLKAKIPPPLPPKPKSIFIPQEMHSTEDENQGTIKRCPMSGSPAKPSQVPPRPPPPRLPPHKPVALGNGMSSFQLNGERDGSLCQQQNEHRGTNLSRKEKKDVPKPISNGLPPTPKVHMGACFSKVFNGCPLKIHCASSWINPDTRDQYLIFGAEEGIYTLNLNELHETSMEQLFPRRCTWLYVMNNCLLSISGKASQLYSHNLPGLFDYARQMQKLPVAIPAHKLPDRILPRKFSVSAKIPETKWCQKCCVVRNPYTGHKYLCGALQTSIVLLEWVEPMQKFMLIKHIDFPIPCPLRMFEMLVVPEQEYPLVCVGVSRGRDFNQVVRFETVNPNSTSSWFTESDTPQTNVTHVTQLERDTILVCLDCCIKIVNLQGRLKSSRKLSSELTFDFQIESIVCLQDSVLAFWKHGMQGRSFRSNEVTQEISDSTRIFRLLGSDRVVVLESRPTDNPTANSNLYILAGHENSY
T9 sequence (P53778 whole entry): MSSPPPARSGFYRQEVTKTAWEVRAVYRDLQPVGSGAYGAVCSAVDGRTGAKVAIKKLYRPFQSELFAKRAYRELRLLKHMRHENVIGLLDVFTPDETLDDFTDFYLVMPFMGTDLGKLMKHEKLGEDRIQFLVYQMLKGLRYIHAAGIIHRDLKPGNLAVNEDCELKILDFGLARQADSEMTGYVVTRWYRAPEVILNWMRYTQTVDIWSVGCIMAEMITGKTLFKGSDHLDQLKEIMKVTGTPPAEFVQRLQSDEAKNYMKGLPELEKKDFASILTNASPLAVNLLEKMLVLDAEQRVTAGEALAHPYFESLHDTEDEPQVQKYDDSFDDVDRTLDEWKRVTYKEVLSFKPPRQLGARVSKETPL

With `COc1cc2c(cn1)N(C)C(=O)[C@@H](NC(=O)c1nc3n(n1)[C@H](c1ccccc1)CC3)CC2` [GNE684, (S)-N-((S)-7-methoxy-1-methyl-2-oxo-2,3,4,5-tetrahydro-1H-pyrido[3,4-b]azepin-3-yl)-5-phenyl-6,7-dihydro-5H-pyrrolo[1,2-b][1,2,4]triazole-2-carboxamide], the remaining binding at 10 µM at GCN2(Kin.Dom.2,S808G) was determined as 100%; on FGR, 94%; on DLK, 100%; at CHEK2, 100%; on KIT(V559D,T670I), 100%; at CSNK1A1 it was 87%. The remaining binding at 10 µM worked out at 100% on MINK; 92% at MAP3K4; 95% on PLK4; 100% at WNK3; 97% on ERN1; 99% at MAP4K3. Moreover, the remaining binding at 10 µM in assay [1] was 75%; at STK16, 100%; on MST3 it was 99%; in assay [2] it was 100%; on MAP4K4, 73%; on MST2 it was 100%. Moreover, the results for the remaining binding at 10 µM at MKNK2, at ERK8 and at p38-gamma were 96%, 85% and 98%, respectively.
